According to patent publication US20090105283A1, “3-HYDROQUINAZOLIN-4-ONE DERIVATIVES FOR USE AS STEAROYL CoA DESATURASE INHIBITORS” (priority 2007, published 2009):

Target: T1, stearoyl-CoA desaturase (SCD) (Rattus norvegicus, UniProt P07308)
T1 construct: The microsomes were quickly thawed and added to assay buffer so that a concentration of 0.4 mg/ml was achieved; from tissue
T1 sequence (P07308 1-358): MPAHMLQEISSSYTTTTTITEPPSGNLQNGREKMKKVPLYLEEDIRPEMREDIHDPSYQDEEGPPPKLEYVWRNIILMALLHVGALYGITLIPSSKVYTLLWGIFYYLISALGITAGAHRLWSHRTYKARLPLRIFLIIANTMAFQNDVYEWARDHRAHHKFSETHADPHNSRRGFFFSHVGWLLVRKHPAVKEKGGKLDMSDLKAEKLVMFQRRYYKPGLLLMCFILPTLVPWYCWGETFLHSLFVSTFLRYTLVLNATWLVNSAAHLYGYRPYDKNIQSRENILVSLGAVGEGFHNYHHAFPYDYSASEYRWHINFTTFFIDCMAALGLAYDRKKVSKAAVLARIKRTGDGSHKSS
Experiment: SCD assay with rat liver microsomes ([3H]stearoyl CoA, adapted from Talamo and Bloch)
Assay type: biochemical
Conditions: Table 1; rat liver microsomes 0.2 mg/ml assay final, [3H]stearoyl CoA substrate, 30 min preincubation, 45 min reaction, room temperature
Description: Male Spraque Dawley Rats were placed on regimented fasting protocol for one week to stimulate SCD enzymatic activity. 48-hour periods were alternated between feeding and fasting to induce and down-regulate SCD activity with SCD activity being induced via carbohydrate rich diet prior to liver perfusion and collection.
The rats were anesthetized with Isoflurane inhalation anesthetic, the liver perfused with cold phosphate buffered saline (PBS), weighed, and chilled in cold homogenization buffer (250 mM sucrose, 10 mM Tris, 1 mM EDTA, pH 7.6.
The livers were finely minced and placed in homogenization tube. 40 mL of homogenization buffer was added to the homogenization tube and the liver homogenized and centrifuged in a pre-chilled […] for 10 min at 4° C.
Following centrifugation, the supernatant was collected and the pellet removed and discarded. The supernatant was centrifuge at 10,000 G for 35 minutes. Following centrifugation, the supernatant was collect and the pellet discarded. The supernatant was then centrifuged in a pre-chilled 45-Ti rotor at 130,000 G (41,000 RPM) for 90 minutes at 4° C.
The supernatant was then aspirated off and the collected microsomal pellet washed in 25 mL of Glycerol PBS (1×PBS 7.4, 20% Glycerol) and resuspended in 4-5 volumes of Glycerol PBS.
The protein concentration of the microsomal preparation was determined by BCA assay (Pierce) and the microsomes were aliquoted and stored at −80° C.
Biobeads were ground to a smaller size in a mortar and pestle and resuspended in 3.6% TCA. The beads were then filtered through […] mesh.
SCD was determined in the desaturase assay buffer. This assay buffer contained 0.1 M Tris buffer, pH 7.2, 2 mM NADH, 4.8 mM ATP, 0.5 mM CoA, 4.8 mM MgCl2, and 0.1% BSA.
1 μl of each compound of Formula I was added to an assay plate by a low volume (0.5-10 μL) multichannel pipette. A DMSO control was also prepared. The microsomes were quickly thawed and added to assay buffer so that a concentration of 0.4 mg/ml was achieved (0.2 mg/ml assay final). 50 μl of the microsome suspension in assay buffer was then added into each well in the compound assay plate, the plate was covered, and the microsomes preincubated with the compounds for 30 minutes on the orbital shaker, 50-75 rpm, at room temperature.
The reaction mixtures were then incubated for 45 minutes on the orbital shaker at 50-75 rpm at room temperature.
The reaction was terminated by the addition of 10 μl of 21% trichloroacetic acid (TCA) to the reaction mixture followed incubation on the orbital shaker for 30 minutes at 50-75 rpm at room temperature followed by centrifugation for 5 minutes at 3700 rpm.
50 μl of a 6% Bio-Bead suspension in H2O was added to the reaction mixture and the assay plate was sealed. The Bio-Bead mixture was incubated on the orbital shaker for 1 hour, 100-150 rpm at room temperature, and then the mixture was centrifuged at 2000 g for 5 minutes to pellet the Bio-Beads.
25 μl of the supernatant was harvested from each well and transferred to a detection plate. 100 μl of OptiPhase SuperMix scinitillation cocktail (containing sufficient NaOH to neutralize the TCA) was added and the solutions mixed by vigorous shaking (300-400 rpm) for 5 minutes at room temperature.

Row | SMILES | IC50 [µM]
1 | O=C(CO)Nc1ccc2ncn(Cc3cccc(C(F)(F)F)c3)c(=O)c2c1 [XCV, 2-hydroxy-N-(4-oxo-3-{[3-(trifluoromethyl)phenyl]methyl}(3-hydroquinazolin-6-yl))acetamide] | 1.38
2 | CC(=O)OCC(=O)Nc1ccc2ncn(Cc3ccc(C(F)(F)F)cc3)c(=O)c2c1 [XCVI, [N-(4-oxo-3-{[4-(trifluoromethyl)phenyl]methyl}-3-hydroquinazolin-6-yl)carbamoyl]methyl acetate] | 2.74
3 | O=C(CO)Nc1ccc2ncn(Cc3ccc(C(F)(F)F)cc3)c(=O)c2c1 [XCVII, 2-hydroxy-N-(4-oxo-3-{[4-(trifluoromethyl)phenyl]methyl}(3-hydroquinazolin-6-yl))acetamide] | 3.16
4 | CC(=O)OCC(=O)Nc1ccc2ncn(Cc3ccc(Cl)c(F)c3)c(=O)c2c1 [XCVIII, (N-{3-[(4-chloro-3-fluorophenyl)methyl]-4-oxo-3-hydroquinazolin-6-yl}carbamoyl)methyl acetate] | 1.32
5 | Cc1ccc(OC(=O)Nc2ccc3ncn(Cc4ccc(Cl)c(Cl)c4)c(=O)c3c2)cc1 [XI, N-{3-[(3,4-dichlorophenyl)methyl]-4-oxo(3-hydroquinazolin-6-yl)}(4-methylphenoxy)carboxamide] | 2.7
6 | O=C(Nc1ccc2ncn(Cc3ccc(Cl)c(Cl)c3)c(=O)c2c1)Oc1ccc(F)cc1 [XII, N-{3-[(3,4-dichlorophenyl)methyl]-4-oxo(3-hydroquinazolin-6-yl)}(4-fluorophenoxy)carboxamide] | 13
7 | COC(=O)Nc1ccc2ncn(Cc3ccc(Cl)c(Cl)c3)c(=O)c2c1 [XIII, N-{3-[(3,4-dichlorophenyl)methyl]-4-oxo(3-hydroquinazolin-6-yl)}methoxycarboxamide] | 4.7
8 | C=CCOC(=O)Nc1ccc2ncn(Cc3ccc(Cl)cc3)c(=O)c2c1 [XIV, N-{3-[(4-chlorophenyl)methyl]-4-oxo(3-hydroquinazolin-6-yl)}prop-2-enyloxycarboxamide] | 25.7
9 | CC(=O)NCC(=O)Nc1ccc2ncn(Cc3ccc(Cl)c(Cl)c3)c(=O)c2c1 [XIX, 2-(acetylamino)-N-{3-[(3,4-dichlorophenyl)methyl]-4-oxo(3-hydroquinazolin-6-yl)}acetamide] | 11.7
10 | O=C(COc1ccccc1)Nc1ccc2ncn(Cc3ccc(F)c(Cl)c3)c(=O)c2c1 [XL, N-{3-[(3-chloro-4-fluorophenyl)methyl]-4-oxo(3-hydroquinazolin-6-yl)}-2-phenoxyacetamide] | 9.5
11 | O=C(COc1ccccc1)Nc1ccc2ncn(Cc3ccc4ccsc4c3)c(=O)c2c1 [XLI, N-[3-(benzo[b]thiophen-6-ylmethyl)-4-oxo(3-hydroquinazolin-6-yl)]-2-phenoxyacetamide] | 8
12 | O=C(CCC(=O)c1ccccc1)Nc1ccc2ncn(Cc3ccc(Cl)c(Cl)c3)c(=O)c2c1 [XLII, N-{3-[(3,4-dichlorophenyl)methyl]-4-oxo(3-hydroquinazolin-6-yl)}-4-oxo-4-phenylbutanamide] | 2.17
13 | O=C(COc1cccc(F)c1)Nc1ccc2ncn(Cc3ccc(Cl)cc3)c(=O)c2c1 [XLIII, N-{3-[(4-chlorophenyl)methyl]-4-oxo(3-hydroquinazolin-6-yl)}-2-(3-fluorophenoxy)acetamide] | 6.4
14 | O=C(COc1ccccc1)Nc1ccc2c(=O)n(Cc3ccc(Cl)cc3)cnc2c1 [XLIV, N-{3-[(4-chlorophenyl)methyl]-4-oxo(3-hydroquinazolin-7-yl)}-2-phenoxyacetamide] | 1.6
15 | O=C(COc1cccnc1)Nc1ccc2c(=O)n(Cc3ccc(Cl)cc3)cnc2c1 [XLIX, N-{3-[(4-chlorophenyl)methyl]-4-oxo(3-hydroquinazolin-7-yl)}-2-(3-pyridyloxy)acetamide] | 2.5
16 | O=C(Nc1ccc2ncn(Cc3ccc4sccc4c3)c(=O)c2c1)OCc1ccccc1 [XLV, N-[3-(benzo[b]thiophen-5-ylmethyl)-4-oxo(3-hydroquinazolin-6-yl)](phenylmethoxy)carboxamide] | 0.86
17 | O=C(Nc1ccc2ncn(Cc3ccc(F)c(Cl)c3)c(=O)c2c1)OCc1ccccc1 [XLVI, N-{3-[(3-chloro-4-fluorophenyl)methyl]-4-oxo(3-hydroquinazolin-6-yl)}(phenylmethoxy)carboxamide] | 0.45
18 | CC(=O)OCC(=O)Nc1ccc2ncn(Cc3ccc(Cl)c(Cl)c3)c(=O)c2c1 [XLVII, (N-{3-[(3,4-dichlorophenyl)methyl]-4-oxo-3-hydroquinazolin-6-yl}carbamoyl)methyl acetate] | 0.1
19 | O=C(Nc1ccc2c(=O)n(Cc3ccc(Cl)cc3)cnc2c1)OCc1ccccc1 [XLVIII, N-{3-[(4-chlorophenyl)methyl]-4-oxo(3-hydroquinazolin-7-yl)}(phenylmethoxy)carboxamide] | 0.09
20 | O=C(COc1ccccc1)Nc1ccc2ncn(Cc3ccc(Cl)c(Cl)c3)c(=O)c2c1 [XV, N-{3-[(3,4-dichlorophenyl)methyl]-4-oxo(3-hydroquinazolin-6-yl)}-2-phenoxyacetamide] | 0.22
21 | O=C(Nc1ccc2ncn(CCc3ccc(Cl)cc3)c(=O)c2c1)OCc1ccccc1 [XVI, N-{3-[2-(4-chlorophenyl)ethyl]-4-oxo(3-hydroquinazolin-6-yl)}(phenylmethoxy)carboxamide] | 0.47
22 | COc1ccc(OCC(=O)Nc2ccc3ncn(Cc4ccc(Cl)c(Cl)c4)c(=O)c3c2)cc1 [XVII, N-{3-[(3,4-dichlorophenyl)methyl]-4-oxo(3-hydroquinazolin-6-yl)}-2-(4-methoxyphenoxy)acetamide] | 2.98
23 | O=C(COc1ccc(F)cc1)Nc1ccc2ncn(Cc3ccc(Cl)c(Cl)c3)c(=O)c2c1 [XVIII, N-{3-[(3,4-dichlorophenyl)methyl]-4-oxo(3-hydroquinazolin-6-yl)}-2-(4-fluorophenoxy)acetamide] | 2.1
24 | Cc1cc(C)cc(OCC(=O)Nc2ccc3ncn(Cc4ccc(Cl)c(Cl)c4)c(=O)c3c2)c1 [XX, N-{3-[(3,4-dichlorophenyl)methyl]-4-oxo(3-hydroquinazolin-6-yl)}-2-(3,5-dimethylphenoxy)acetamide] | 2.92
25 | Cc1cccc(C)c1OCC(=O)Nc1ccc2ncn(Cc3ccc(Cl)c(Cl)c3)c(=O)c2c1 [XXI, N-{3-[(3,4-dichlorophenyl)methyl]-4-oxo(3-hydroquinazolin-6-yl)}-2-(2,6-dimethylphenoxy)acetamide] | 3.45
26 | Cc1ccc(OCC(=O)Nc2ccc3ncn(Cc4ccc(Cl)c(Cl)c4)c(=O)c3c2)cc1 [XXII, N-{3-[(3,4-dichlorophenyl)methyl]-4-oxo(3-hydroquinazolin-6-yl)}-2-(4-methylphenoxy)acetamide] | 5.7
27 | O=C(Nc1ccc2ncn(Cc3ccc(Cl)c(Cl)c3)c(=O)c2c1)OCc1cccnc1 [XXIII, N-{3-[(3,4-dichlorophenyl)methyl]-4-oxo(3-hydroquinazolin-6-yl)}(3-pyridylmethoxy)carboxamide] | 0.17
28 | O=C(Nc1ccc2ncn(Cc3ccc(F)cc3)c(=O)c2c1)OCc1ccccc1 [XXIV, N-{3-[(4-fluorophenyl)methyl]-4-oxo(3-hydroquinazolin-6-yl)}(phenylmethoxy)carboxamide] | 0.3
29 | O=C(COc1ccccc1Cl)Nc1ccc2ncn(Cc3ccc(Cl)c(Cl)c3)c(=O)c2c1 [XXIX, N-{3-[(3,4-dichlorophenyl)methyl]-4-oxo(3-hydroquinazolin-6-yl)}-2-(2-chlorophenoxy)acetamide] | 1.98
